Assay: wn = mass fraction of the nth substance listed
Settings: 101 kPa, Liquid, Digital holographic interferometer

CCC(C)CO (centres undefined) [2-methyl-1-butanol] + CCCCCCC
binary diffusion coefficient (288.15 K, w1 = 0.05): 1.02e-09 m2/s | binary diffusion coefficient (288.15 K, w1 = 0.15): 8.91e-10 m2/s | binary diffusion coefficient (288.15 K, w1 = 0.25): 7.99e-10 m2/s | binary diffusion coefficient (288.15 K, w1 = 0.35): 6.91e-10 m2/s | binary diffusion coefficient (288.15 K, w1 = 0.45): 6.03e-10 m2/s | binary diffusion coefficient (288.15 K, w1 = 0.55): 5.26e-10 m2/s | binary diffusion coefficient (288.15 K, w1 = 0.65): 4.81e-10 m2/s | binary diffusion coefficient (288.15 K, w1 = 0.75): 4.52e-10 m2/s | binary diffusion coefficient (288.15 K, w1 = 0.85): 4.61e-10 m2/s | binary diffusion coefficient (288.15 K, w1 = 0.95): 4.83e-10 m2/s | binary diffusion coefficient (298.15 K, w1 = 0.05): 1.24e-09 m2/s | binary diffusion coefficient (298.15 K, w1 = 0.15): 1.11e-09 m2/s | binary diffusion coefficient (298.15 K, w1 = 0.25): 1.01e-09 m2/s | binary diffusion coefficient (298.15 K, w1 = 0.35): 9.24e-10 m2/s | binary diffusion coefficient (298.15 K, w1 = 0.45): 8.43e-10 m2/s | binary diffusion coefficient (298.15 K, w1 = 0.55): 7.55e-10 m2/s | binary diffusion coefficient (298.15 K, w1 = 0.65): 7.02e-10 m2/s | binary diffusion coefficient (298.15 K, w1 = 0.75): 6.8e-10 m2/s | binary diffusion coefficient (298.15 K, w1 = 0.85): 6.9e-10 m2/s | binary diffusion coefficient (298.15 K, w1 = 0.95): 7.04e-10 m2/s | binary diffusion coefficient (308.15 K, w1 = 0.05): 1.49e-09 m2/s | binary diffusion coefficient (308.15 K, w1 = 0.15): 1.34e-09 m2/s | binary diffusion coefficient (308.15 K, w1 = 0.25): 1.24e-09 m2/s | binary diffusion coefficient (308.15 K, w1 = 0.35): 1.15e-09 m2/s | binary diffusion coefficient (308.15 K, w1 = 0.45): 1.08e-09 m2/s | binary diffusion coefficient (308.15 K, w1 = 0.55): 9.81e-10 m2/s | binary diffusion coefficient (308.15 K, w1 = 0.65): 9.31e-10 m2/s | binary diffusion coefficient (308.15 K, w1 = 0.75): 9.25e-10 m2/s | binary diffusion coefficient (308.15 K, w1 = 0.85): 9.36e-10 m2/s | binary diffusion coefficient (308.15 K, w1 = 0.95): 9.41e-10 m2/s | binary diffusion coefficient (318.15 K, w1 = 0.05): 1.73e-09 m2/s | binary diffusion coefficient (318.15 K, w1 = 0.15): 1.58e-09 m2/s | binary diffusion coefficient (318.15 K, w1 = 0.25): 1.5e-09 m2/s | binary diffusion coefficient (318.15 K, w1 = 0.35): 1.4e-09 m2/s | binary diffusion coefficient (318.15 K, w1 = 0.45): 1.33e-09 m2/s | binary diffusion coefficient (318.15 K, w1 = 0.55): 1.24e-09 m2/s | binary diffusion coefficient (318.15 K, w1 = 0.65): 1.17e-09 m2/s | binary diffusion coefficient (318.15 K, w1 = 0.75): 1.16e-09 m2/s | binary diffusion coefficient (318.15 K, w1 = 0.85): 1.18e-09 m2/s | binary diffusion coefficient (318.15 K, w1 = 0.95): 1.19e-09 m2/s

CC(C)CCO [3-methylbutan-1-ol] + CCCCCCC
binary diffusion coefficient (288.15 K, w1 = 0.05): 1.74e-09 m2/s | binary diffusion coefficient (288.15 K, w1 = 0.15): 1.25e-09 m2/s | binary diffusion coefficient (288.15 K, w1 = 0.25): 9.07e-10 m2/s | binary diffusion coefficient (288.15 K, w1 = 0.35): 6.95e-10 m2/s | binary diffusion coefficient (288.15 K, w1 = 0.45): 6.1e-10 m2/s | binary diffusion coefficient (288.15 K, w1 = 0.55): 5.7e-10 m2/s | binary diffusion coefficient (288.15 K, w1 = 0.65): 6.18e-10 m2/s | binary diffusion coefficient (288.15 K, w1 = 0.75): 6.65e-10 m2/s | binary diffusion coefficient (288.15 K, w1 = 0.85): 7.11e-10 m2/s | binary diffusion coefficient (288.15 K, w1 = 0.95): 7.46e-10 m2/s | binary diffusion coefficient (298.15 K, w1 = 0.05): 1.99e-09 m2/s | binary diffusion coefficient (298.15 K, w1 = 0.15): 1.52e-09 m2/s | binary diffusion coefficient (298.15 K, w1 = 0.25): 1.17e-09 m2/s | binary diffusion coefficient (298.15 K, w1 = 0.35): 9.75e-10 m2/s | binary diffusion coefficient (298.15 K, w1 = 0.45): 8.69e-10 m2/s | binary diffusion coefficient (298.15 K, w1 = 0.55): 8.42e-10 m2/s | binary diffusion coefficient (298.15 K, w1 = 0.65): 8.91e-10 m2/s | binary diffusion coefficient (298.15 K, w1 = 0.75): 9.46e-10 m2/s | binary diffusion coefficient (298.15 K, w1 = 0.85): 9.85e-10 m2/s | binary diffusion coefficient (298.15 K, w1 = 0.95): 1.01e-09 m2/s | binary diffusion coefficient (308.15 K, w1 = 0.05): 2.28e-09 m2/s | binary diffusion coefficient (308.15 K, w1 = 0.15): 1.83e-09 m2/s | binary diffusion coefficient (308.15 K, w1 = 0.25): 1.44e-09 m2/s | binary diffusion coefficient (308.15 K, w1 = 0.35): 1.27e-09 m2/s | binary diffusion coefficient (308.15 K, w1 = 0.45): 1.15e-09 m2/s | binary diffusion coefficient (308.15 K, w1 = 0.55): 1.13e-09 m2/s | binary diffusion coefficient (308.15 K, w1 = 0.65): 1.17e-09 m2/s | binary diffusion coefficient (308.15 K, w1 = 0.75): 1.22e-09 m2/s | binary diffusion coefficient (308.15 K, w1 = 0.85): 1.29e-09 m2/s | binary diffusion coefficient (308.15 K, w1 = 0.95): 1.32e-09 m2/s | binary diffusion coefficient (318.15 K, w1 = 0.05): 2.54e-09 m2/s | binary diffusion coefficient (318.15 K, w1 = 0.15): 2.09e-09 m2/s | binary diffusion coefficient (318.15 K, w1 = 0.25): 1.75e-09 m2/s | binary diffusion coefficient (318.15 K, w1 = 0.35): 1.55e-09 m2/s | binary diffusion coefficient (318.15 K, w1 = 0.45): 1.43e-09 m2/s | binary diffusion coefficient (318.15 K, w1 = 0.55): 1.4e-09 m2/s | binary diffusion coefficient (318.15 K, w1 = 0.65): 1.46e-09 m2/s | binary diffusion coefficient (318.15 K, w1 = 0.75): 1.52e-09 m2/s | binary diffusion coefficient (318.15 K, w1 = 0.85): 1.56e-09 m2/s | binary diffusion coefficient (318.15 K, w1 = 0.95): 1.58e-09 m2/s

[Cl-].[Li+] [lithium chloride] + O
binary diffusion coefficient (298.15 K, w1 = 0.011): 1.31e-09 m2/s | binary diffusion coefficient (298.15 K, w1 = 0.027): 1.23e-09 m2/s

[Cl-].[K+] [potassium chloride] + O
binary diffusion coefficient (298.15 K, w1 = 0.025): 1.85e-09 m2/s

[Cl-].[Na+] [sodium chloride] + O
binary diffusion coefficient (298.15 K, w1 = 0.018): 1.47e-09 m2/s

Reference: the NIST ThermoML archive (doi:10.1016/j.jct.2018.10.023)
